In patent publication US8697739B2, “Bicyclic acetyl-CoA carboxylase inhibitors and uses thereof” (Novartis AG, priority 2010, dated 2014) one finds IC50 data, which are given here for 29 compounds.

T1 sequence (O00763 144-2458): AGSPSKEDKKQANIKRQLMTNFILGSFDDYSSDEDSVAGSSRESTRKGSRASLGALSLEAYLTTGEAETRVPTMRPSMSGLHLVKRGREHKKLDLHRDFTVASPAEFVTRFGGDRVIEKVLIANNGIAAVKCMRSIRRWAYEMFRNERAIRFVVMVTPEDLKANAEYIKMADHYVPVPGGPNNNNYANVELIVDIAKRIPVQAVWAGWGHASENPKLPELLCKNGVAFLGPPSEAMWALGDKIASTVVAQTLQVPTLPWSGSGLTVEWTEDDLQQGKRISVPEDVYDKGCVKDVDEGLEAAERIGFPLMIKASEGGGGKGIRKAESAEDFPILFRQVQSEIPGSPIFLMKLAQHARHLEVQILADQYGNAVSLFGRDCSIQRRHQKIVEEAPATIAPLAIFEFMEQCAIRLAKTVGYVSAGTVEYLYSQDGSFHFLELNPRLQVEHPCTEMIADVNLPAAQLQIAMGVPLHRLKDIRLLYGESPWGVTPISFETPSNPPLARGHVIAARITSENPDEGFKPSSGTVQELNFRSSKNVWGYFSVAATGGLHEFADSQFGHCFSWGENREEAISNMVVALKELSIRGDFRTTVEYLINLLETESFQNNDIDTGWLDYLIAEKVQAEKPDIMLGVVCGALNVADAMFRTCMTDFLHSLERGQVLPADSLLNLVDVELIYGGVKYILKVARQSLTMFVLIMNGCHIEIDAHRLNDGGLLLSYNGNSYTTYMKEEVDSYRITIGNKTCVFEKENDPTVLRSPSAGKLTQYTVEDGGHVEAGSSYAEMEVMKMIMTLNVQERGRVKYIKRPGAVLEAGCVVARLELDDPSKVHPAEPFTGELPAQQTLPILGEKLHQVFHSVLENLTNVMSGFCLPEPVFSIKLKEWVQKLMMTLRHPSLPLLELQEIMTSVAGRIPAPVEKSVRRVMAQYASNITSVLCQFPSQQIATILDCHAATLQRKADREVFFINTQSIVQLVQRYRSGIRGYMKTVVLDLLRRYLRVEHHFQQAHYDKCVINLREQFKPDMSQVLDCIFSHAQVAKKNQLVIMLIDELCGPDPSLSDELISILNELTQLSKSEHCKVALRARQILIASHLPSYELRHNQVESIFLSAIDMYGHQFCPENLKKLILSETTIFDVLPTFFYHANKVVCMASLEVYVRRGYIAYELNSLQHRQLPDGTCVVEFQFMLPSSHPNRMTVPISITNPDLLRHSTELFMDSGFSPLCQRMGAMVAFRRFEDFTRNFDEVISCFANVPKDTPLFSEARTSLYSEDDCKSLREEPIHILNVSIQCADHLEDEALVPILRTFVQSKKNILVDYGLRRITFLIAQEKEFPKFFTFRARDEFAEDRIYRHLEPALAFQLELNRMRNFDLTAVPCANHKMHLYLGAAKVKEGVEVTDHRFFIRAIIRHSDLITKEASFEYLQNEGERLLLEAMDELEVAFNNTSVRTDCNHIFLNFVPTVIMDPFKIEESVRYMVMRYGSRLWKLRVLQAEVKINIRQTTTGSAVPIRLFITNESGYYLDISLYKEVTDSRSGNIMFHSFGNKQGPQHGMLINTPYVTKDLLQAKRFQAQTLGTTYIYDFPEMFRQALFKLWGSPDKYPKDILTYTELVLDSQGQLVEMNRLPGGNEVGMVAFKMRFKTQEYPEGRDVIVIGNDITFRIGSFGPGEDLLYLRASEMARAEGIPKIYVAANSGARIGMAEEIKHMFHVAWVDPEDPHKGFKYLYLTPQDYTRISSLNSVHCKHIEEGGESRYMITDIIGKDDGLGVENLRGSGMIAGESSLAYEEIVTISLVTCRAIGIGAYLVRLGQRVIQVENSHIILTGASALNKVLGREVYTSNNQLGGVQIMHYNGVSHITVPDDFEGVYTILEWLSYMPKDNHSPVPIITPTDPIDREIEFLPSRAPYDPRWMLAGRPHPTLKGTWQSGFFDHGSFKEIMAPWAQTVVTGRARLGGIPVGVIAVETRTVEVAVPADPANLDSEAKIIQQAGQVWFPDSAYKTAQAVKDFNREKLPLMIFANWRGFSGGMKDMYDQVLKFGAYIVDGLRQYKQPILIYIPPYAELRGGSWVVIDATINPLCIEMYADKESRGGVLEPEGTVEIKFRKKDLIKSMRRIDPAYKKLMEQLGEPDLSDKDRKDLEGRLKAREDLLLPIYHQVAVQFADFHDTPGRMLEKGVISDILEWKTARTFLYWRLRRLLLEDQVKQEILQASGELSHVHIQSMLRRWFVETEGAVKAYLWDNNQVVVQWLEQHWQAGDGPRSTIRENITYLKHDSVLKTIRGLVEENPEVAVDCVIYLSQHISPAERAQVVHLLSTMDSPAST

The test has as its target T1, human acetyl-CoA carboxylase 2 (ACC2) (Homo sapiens, UniProt O00763).
T1 construct: The cDNA encoding amino acids 144 to 2458 of human acetyl-CoA carboxylase 2; made in house; host or cells: Sf9 insect cells (baculovirus, pFastBac1)
Briefly: Acetyl-CoA carboxylase enzyme assay (malonyl-CoA formation by LC/MS/MS). Format: biochemical. As to conditions: recombinant human ACC2 (aa 144-2458); read-out: IC50 ACC2. The gist of the method: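 Malonyl-CoA formation was read by LC/MS/MS MRM against a [13C3]-malonyl-CoA internal standard, after acetic acid quench. The enzyme was baculovirus/Sf9-expressed human ACC2 residues 144–2458, given 15 minutes room-temperature compound preincubation in HEPES pH 7.5 buffer with MgCl2, citrate and DTT. Substrate solution held 50 μM acetyl-CoA, 120 μM ATP and 2 mM KHCO3.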
As to `C[C@@H](NC(=O)[C@H]1CC[C@H](NS(=O)(=O)c2ccc3[nH]c(C4CC4)nc3c2)CC1)c1ccccc1` [Example 277, (1r,4R)-4-(2-cyclopropyl-1H-benzo[d]imidazole-5-sulfonamido)-N-((R)-1-phenylethyl)cyclohexanecarboxamide], the IC50 (commonly the concentration that inhibits the measured activity by half) was 0.08 µM.

Take `Cc1c(Cl)[nH]c2ccc(S(=O)(=O)N[C@H]3CC[C@H](C(=O)N[C@H](C)c4ccc(F)cc4)CC3)cc12` [Example 124, (1r,4R)-4-(2-chloro-3-methyl-1H-indole-5-sulfonamido)-N-((R)-1-(4-fluorophenyl)ethyl)cyclohexanecarboxamide]: the IC50 stood at 0.032 µM.

Take `CC(C)n1c(-c2ccc(F)cc2)c(Cl)c2ccc(S(=O)(=O)N[C@H]3CC[C@H](C(=O)N4CCNC(C(F)(F)F)C4)CC3)cc21` (some centres unmarked) [Example 350, 3-chloro-2-(4-fluorophenyl)-1-isopropyl-N-((1r,4r)-4-(3-(trifluoromethyl)piperazine-1-carbonyl)cyclohexyl)-1H-indole-6-sulfonamide]: the IC50 was determined as 0.47 µM.

With `O=C([C@H]1CC[C@H](NS(=O)(=O)c2ccc3cc(-c4ccccc4C(F)(F)F)[nH]c3c2)CC1)N1CCCC(C(F)(F)F)C1` (some centres unmarked) [Example 330, 2-(2-(trifluoromethyl)phenyl)-N-((1r,4r)-4-(3-(trifluoromethyl)piperidine-1-carbonyl)cyclohexyl)-1H-indole-6-sulfonamide], the IC50 turned out to be 3.6 µM.

`C[C@@H](NC(=O)[C@H]1CC[C@H](NS(=O)(=O)c2ccc3cc(-c4ccccc4)[nH]c3c2)CC1)c1ccccn1` [Example 19, (1r,4R)-4-(2-phenyl-1H-indole-6-sulfonamido)-N—((R)-1-(pyridin-2-yl)ethyl)cyclohexanecarboxamide]: the IC50 was 0.056 µM.

For the compound `COC(=O)c1ccc(COC(=O)[C@H]2CC[C@H](NS(=O)(=O)c3ccc4nc(-c5ccccc5)[nH]c4c3)CC2)cc1` [Example 101, methyl 4-(((1r,4r)-4-(2-phenyl-1H-benzo[d]imidazole-6-sulfonamido)cyclohexanecarbonyloxy)methyl)benzoate], the IC50 came out at 1.79 µM.

Turning to `C[C@@H](NC(=O)[C@H]1CC[C@H](NS(=O)(=O)c2ccc3c(c2)NC(=O)CC3(C)C)CC1)c1ccc(F)cc1` [Example 195, (1r,4R)-4-(4,4-dimethyl-2-oxo-1,2,3,4-tetrahydroquinoline-7-sulfonamido)-N-((R)-1-(4-fluorophenyl)ethyl)cyclohexanecarboxamide], the IC50 was determined as 0.335 µM.

As to `COc1ccc(COC(=O)C2(C)CCC(NS(=O)(=O)c3ccc4c(ccn4C)c3)CC2)cc1` (centres unmarked) [Example 379, 4-methoxybenzyl 1-methyl-4-(1-methyl-1H-indole-5-sulfonamido)cyclohexanecarboxylate], the IC50 stood at 0.58 µM.

Take `C[C@@H](NC(=O)[C@H]1CC[C@@H](NS(=O)(=O)c2ccc3ccccc3c2)CC1)c1ccc(F)cc1` [Example 147, (1s,4S)-N-((R)-1-(4-fluorophenyl)ethyl)-4-(naphthalene-2-sulfonamido)cyclohexanecarboxamide]: the IC50 is over 35 µM.

With `COc1ccc(Nc2nc3cc(S(=O)(=O)N[C@H]4CC[C@H](c5nnc(C(C)C)o5)CC4)ccc3[nH]2)cc1` [Example 594, N-((1r,4r)-4-(5-isopropyl-1,3,4-oxadiazol-2-yl)cyclohexyl)-2-(4-methoxyphenylamino)-1H-benzo[d]imidazole-5-sulfonamide], the IC50 worked out at 0.202 µM.

For the compound `C[C@@H](NC(=O)C1CCC(NS(=O)(=O)c2ccc3[nH]c(-c4ccccc4)nc3c2)CC1)c1ccccc1` (stereo partly drawn) [Example 580, (1r,4S)-4-(2-phenyl-1H-benzo[d]imidazole-5-sulfonamido)-N-((S)-1-phenylethyl)cyclohexanecarboxamide], the half-maximal inhibitory concentration (IC50) came to 1.75 µM.

For the compound `C[C@@H](NC(=O)[C@H]1CC[C@H](NS(=O)(=O)c2ccc3c(c2)N(C)[C@@H](C(=O)O)CC3)CC1)c1ccc(F)cc1` [Example 251, (R)-7-(N-((1R,4R)-4-((R)-1-(4-fluorophenyl)ethylcarbamoyl)cyclohexyl)sulfamoyl)-1-methyl-1,2,3,4-tetrahydroquinoline-2-carboxylic acid], the half-maximal inhibitory concentration (IC50) was 0.035 µM.

For “N-(4-(5-isopropyl-1,3,4-oxadiazol-2-yl)phenyl)-2-(4-morpholinophenyl)-1H-benzo[d]imidazole-5-sulfonamide [Example 591]”, the IC50 was 1.13 µM.

As to `O=C([C@H]1CC[C@H](NS(=O)(=O)c2ccc3[nH]c(-c4ccccc4)nc3c2)CC1)N1CCN(CC2CCCCC2)CC1` [Example 627, N-((1r,4r)-4-(4-(cyclohexylmethyl)piperazine-1-carbonyl)cyclohexyl)-2-phenyl-1H-benzo[d]imidazole-5-sulfonamide], the IC50 came out at 2.06 µM.

As for `Cn1c(-c2ccc(CCC(=O)O)cc2)c(C#N)c2ccc(S(=O)(=O)N[C@H]3CC[C@H](C(=O)N4CCC[C@H]4C(C)(C)C)CC3)cc21` [Example 429, 3-(4-(6-(N-((1S,4r)-4-((S)-2-tert-butylpyrrolidine-1-carbonyl)cyclohexyl)sulfamoyl)-3-cyano-1-methyl-1H-indol-2-yl)phenyl)propanoic acid], the IC50 stood at 0.075 µM.

In the case of `C[C@@H](NC(=O)[C@H]1CC[C@H](NS(=O)(=O)c2ccc3nc(N4CCN(C)CC4)ccc3c2)CC1)c1ccc(F)cc1` [Example 38, (1r,4R)-N-((R)-1-(4-fluorophenyl)ethyl)-4-(2-(4-methylpiperazin-1-yl)quinoline-6-sulfonamido)cyclohexanecarboxamide], the IC50 worked out at 0.05 µM.

In the case of `CCOC(=O)c1cccc(-c2nc3ccc(S(=O)(=O)N[C@H]4CC[C@H](C(=O)N[C@H](C)c5ccccc5)CC4)cc3[nH]2)c1` [Example 2, ethyl 3-(6-(N-((1R,4r)-4-((R)-1-phenylethylcarbamoyl)cyclohexyl)sulfamoyl)-1H-benzo[d]imidazol-2-yl)benzoate], the IC50 came to 0.019 µM.

For the compound `C[C@@H](NC(=O)[C@H]1CC[C@H](NS(=O)(=O)c2ccc3c(c2)CCCN3)CC1)c1ccc(F)cc1` [Example 152, (1r,4R)-N-((R)-1-(4-fluorophenyl)ethyl)-4-(1,2,3,4-tetrahydroquinoline-6-sulfonamido)cyclohexanecarboxamide], the IC50 stood at 0.06 µM.

As to `CC(C)OC(=O)c1ccc(NS(=O)(=O)c2ccc3nc(-c4ccc(C(C)(C)C)cc4)[nH]c3c2)cc1` [Example 512, isopropyl 4-(2-(4-tert-butylphenyl)-1H-benzo[d]imidazole-6-sulfonamido)benzoate], the IC50 came to 2.29 µM.

Turning to `O=C([C@H]1CC[C@H](NS(=O)(=O)c2ccc3[nH]c(-c4ccccc4)nc3c2)CC1)N1CCC2CCCCC2C1` (some centres unmarked) [Example 624, N-((1r-4r)-4-(decahydroisoquinoline-2-carbonyl)cyclohexyl)-2-phenyl-1H-benzo[d]imidazole-5-sulfonamide], the IC50 is 0.246 µM.

For `C[C@@H](NC(=O)[C@H]1CC[C@H](NS(=O)(=O)c2ccc3c(c2)C(=O)NCC3)CC1)c1ccc(F)cc1` [Example 223, (1r,4R)-N-((R)-1-(4-fluorophenyl)ethyl)-4-(1-oxo-1,2,3,4-tetrahydroisoquinoline-7-sulfonamido)cyclohexanecarboxamide], the IC50 was 0.205 µM.

`CCCN(CC1CC1)C(=O)[C@H]1CC[C@H](NS(=O)(=O)c2ccc3[nH]c(-c4ccccc4)nc3c2)CC1` [Example 625, (1r,4r)-N-(cyclopropylmethyl)-4-(2-phenyl-1H-benzo[d]imidole-5-sulfonamido)-N-propylcyclohexanecarboxamide]: the IC50 amounted to 0.08 µM.

Regarding `O=C(Nc1cccc(C(F)(F)F)c1)[C@H]1CC[C@H](NS(=O)(=O)c2ccc3[nH]c(-c4ccccc4)nc3c2)CC1` [Example 648, (1r,4r)-4-(2-phenyl-1H-benzo[d]imidazole-5-sulfonamido)-N-(3-(trifluoromethyl)phenyl)cyclohexanecarboxamide], the IC50 turned out to be 1.84 µM.

On to `Cn1c(CCC(=O)O)cc2ccc(S(=O)(=O)N[C@H]3CC[C@H](C(=O)N4CCCC4c4ccc(F)cc4)CC3)cc21` (some centres unmarked) [Example 370, 3-(6-(N-((1r,4r)-4-(2-(4-fluorophenyl)pyrrolidine-1-carbonyl)cyclohexyl)sulfamoyl)-1-methyl-1H-indol-2-yl)propanoic acid], for which the IC50 came to 0.27 µM.

With `Cn1c(-c2ccc(CO)cc2)cc2ccc(S(=O)(=O)N[C@H]3CC[C@H](C(=O)N4CCOCC4)CC3)cc21` [Example 336, 2-(4-(hydroxymethyl)phenyl)-1-methyl-N-((1r,4r)-4-(morpholine-4-carbonyl)cyclohexyl)-1H-indole-6-sulfonamide], the IC50 stood at 0.035 µM.

Turning to `O=C([C@H]1CC[C@H](NS(=O)(=O)c2ccc3[nH]c(Nc4ccccc4)nc3c2)CC1)N1CCOCC1` [Example 584, N-((1r,4r)-4-(morpholine-4-carbonyl)cyclohexyl)-2-(phenylamino)-1H-benzo[d]imidazole-5-sulfonamide], the IC50 came out at 0.119 µM.

Regarding `COc1ccccc1-c1cc2ccc(S(=O)(=O)N[C@H]3CC[C@H](C(=O)N[C@H](C)c4ccc(F)cc4)CC3)cc2[nH]1` [Example 293], the IC50 is 0.038 µM.

Regarding `COC(=O)C12CC3CC(C1)C(NS(=O)(=O)c1ccc4oc5ccccc5c4c1)C(C3)C2` (centres unmarked) [Example 265, 4-(Dibenzofuran-2-sulfonylamino)-adamantane-1-carboxylic acid methyl ester], the IC50 came out at 0.685 µM.

`Cn1c(-c2ccccc2)cc2cc(S(=O)(=O)N[C@H]3CC[C@H](C(=O)N4CC(C(=O)O)CCC4c4ccccc4)CC3)ccc21` (some centres unmarked) [Example 90, 1-((1r,4r)-4-(1-methyl-2-phenyl-1H-indole-5-sulfonamido)cyclohexanecarbonyl)-6-phenylpiperidine-3-carboxylic acid]: the half-inhibitory concentration (IC50) amounted to 0.26 µM.
